In patent US8552033B2, “Inhibitors of CXCR2” (SANOFI, priority 2006, dated 2013):

Target: human CXCR2 (Homo sapiens (Human), UniProt P25025)
Assay: CXCR2 inhibition: calcium fluorescence assay (FLIPR)
Assay type: cell-based
Conditions: chemokine IL-8; CHO-K1 cells stably transfected with human CXCR2 and Gα16; Fluo-4 calcium response
Source text: Determination of CXCR2 Inhibition: Calcium Fluorescence Assay (FLIPR)
The assay is based on the detection of intracellular calcium changes detected by the selective, calcium-chelating dye, Fluo-4 (Molecular Probes). A large fluorescence intensity increase is observed upon calcium association with Fluo-4. The dye is delivered to the cell interior using an acetoxymethylester form of Fluo-4, where the intracellular esterase activity results in the charged species being released and trapped within the cytoplasm of the cell. […] By co-expressing the CXCR2 receptor and the promiscuous Gα16 protein, activation of this chemokine receptor is directed into this phospholipase C cascade resulting in intracellular calcium mobilization.
The CHO-K1 cells stably transfected with human CXCR2 and the promiscuous Gα16 protein were maintained in a log phase of growth at 37° C. and 5% CO2 in the following media: Iscove's, 10% FBS, 1× Penicillin-Streptomycin, 400 μg/mL G418 and 350 μg/mL Zeocin. Approximately 24-48 hours prior to the assay, 20,000-30,000 cells/well were plated onto a 96-well black/clear bottomed assay plate (Becton Dickinson) with a well volume of 180 μl. […] The IC50 value of a compound was determined by calculation of % inhibition of total calcium response to the chemokine.

Chain of human CXCR2 (P25025 whole entry): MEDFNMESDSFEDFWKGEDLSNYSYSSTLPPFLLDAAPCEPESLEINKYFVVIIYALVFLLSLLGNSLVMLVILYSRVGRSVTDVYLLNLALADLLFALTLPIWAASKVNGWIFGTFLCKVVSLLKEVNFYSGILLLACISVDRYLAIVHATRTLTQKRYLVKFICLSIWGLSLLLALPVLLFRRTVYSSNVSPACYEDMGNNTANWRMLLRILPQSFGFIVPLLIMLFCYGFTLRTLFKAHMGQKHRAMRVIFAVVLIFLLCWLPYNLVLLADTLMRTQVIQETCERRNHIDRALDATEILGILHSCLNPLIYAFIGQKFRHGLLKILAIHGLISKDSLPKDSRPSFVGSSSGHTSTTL

Row | IC50 [µM] | SMILES
1 | 2.2 | CCC(NC(=O)c1ccc2ccccc2c1OCc1ccc(C(F)(F)F)cc1)(C(=O)O)c1ccccc1 (centres unmarked) [Example 10, 2-Phenyl-2-{[1-(4-trifluoromethyl-benzyloxy)-naphthalene-2-carbonyl]-amino}-butyric acid]
2 | 6 | O=C(NC1(C(=O)O)CCOCC1)c1cc(F)c2ccccc2c1OCc1ccc(SC(F)(F)F)cc1 [Example 12, 4-{[4-Fluoro-1-(4-trifluoromethylsulfanyl-benzyloxy)-naphthalene-2-carbonyl]-amino}-tetrahydro-pyran-4-carboxylic acid]
